# Data: US20060025394A1, “Estradiol-related compounds and methods of use as anti-tumor agents” (priority 2003, published 2006)
# Entries after “also recorded” stand apart in the source; their conditions may differ.
# Experiments:
# [1] = tested on: NCR nude mice; details: 5 to 40 mg/kg/day bolus IM injection, 40-day period
# Description: Doses included 5 to 40 mg/kg/day bolus IM injection. Toxicity effects were gauged based on changes in animal weight and gross analysis of specific organs including liver, lung, prostate, brain, spleen, heart, and kidney, collected, and fixed in paraffin sections.
# [2] = target: T1, ER-β (Homo sapiens, UniProt Q92731); experiment: Estrogen receptor relative binding affinity assay, fluorescence polarization, ER-β
# T1 construct: purchased Pan Vera, Madison, Wis
# Description: (§1) All assays were carried out as per the manufacture's instructions with the following modifications.
# [3] = tested on: DU145; experiment: MTS cell viability assay in DU145; type: cell-based
# Description: (§2) DU145, LNCaP, PC3, and MCF-7 cells were obtained from the American Type Culture Collection (Manassas, Va.). DU145, PC3, and MCF-7 cells were maintained in Dulbecco's modified Eagle's medium/F-12 supplemented with 5% heat inactivated Fetal Calf Serum and Penicillin/Streptomycin (Invitrogen Life Technologies, Carlsbad, Calif.). LNCaP cells were maintained in RPMI 1640 medium supplemented in the same fashion. Cells were cultured in 75 cm^2 flasks (Falcon, BD Biosciences, Bedford, Mass.) at 37° C. and 5% CO2. For the MTS assay (Example 3), five thousand cells were plated in each well of a 24 well plate (Falcon), were allowed to attach for a 48-hour period in the media described, and changed to a defined medium, (DMEM/F-12 or RPMI1640) supplemented with insulin (BD Biosciences). A 1000× solution of the compound of interest solubilized in DMSO (Sigma, Saint Louis, Mo.) was diluted in the defined media just prior to starting each experiment, and media was refreshed every 48 to 72 hours throughout the experiments.
# (§3) . Upon completing five days of treatment, the medium in each well was exchanged for 400 μL of an MTS solution (3-(4,5-dimethylthiazol-2-yl)-5-(3-carboxymethoxyphenyl)-2-(4-sulfophenyl)-2H-tetrazolium, inner salt; O'Toole SA, 2003, Cancer Detect Prev., 2003;27(1):47-54) spiked into media as per the manufacture's instructions (Promega, Madison, Wis.) and incubated for 2 hours at 37° C. before reading the absorbance on the μQuant UV/VIS plate reader, in conjunction with KCjunior Software (Bio-Tek Instruments, Winooski, Vt.) set at 490 nm. All experiments were carried out in quadruplicate, control wells were treated with the carrier DMSO. E2, which is estradiol-17β (Steraloids®, Newport, R.I.) and resveratrol (Sigma) were used as controls. […]
# [4] = tested on: MCF-7; experiment: MTS cell viability assay in MCF-7; type: cell-based; details: MCF-7, data not shown
# Description: DU145, LNCaP, PC3, and MCF-7 cells were obtained from the American Type Culture Collection (Manassas, Va.). DU145, PC3, and MCF-7 cells were maintained in Dulbecco's modified Eagle's medium/F-12 supplemented with 5% heat inactivated Fetal Calf Serum and Penicillin/Streptomycin (Invitrogen Life Technologies, Carlsbad, Calif.). LNCaP cells were maintained in RPMI 1640 medium supplemented in the same fashion. Cells were cultured in 75 cm^2 flasks (Falcon, BD Biosciences, Bedford, Mass.) at 37° C. and 5% CO2. […]
# (§4) Cell viability assays were carried out with five logs of concentration between 0.1 nM and […] for APVE2, including controls in three prostate cancer cell lines (DU145, LNCaP, and PC3, and in a breast cancer cell line (MCF-7). Upon completing five days of treatment, the medium in each well was exchanged for 400 μL of an MTS solution (3-(4,5-dimethylthiazol-2-yl)-5-(3-carboxymethoxyphenyl)-2-(4-sulfophenyl)-2H-tetrazolium, inner salt; O'Toole SA, 2003, Cancer Detect Prev., 2003;27(1):47-54) spiked into media as per the manufacture's instructions (Promega, Madison, Wis.) and incubated for 2 hours at 37° C. before reading the absorbance on the μQuant UV/VIS plate reader, in conjunction with KCjunior Software (Bio-Tek Instruments, Winooski, Vt.) set at 490 nm. […] EC50 values were calculated with GraphPad Prism software (GraphPad Software Inc., San Diego, Calif.).
# [5] = tested on: PC3; experiment: MTS cell viability assay in PC3; type: cell-based
# Description: as §2
# as §4, with “nm. All experiments were carried out in quadruplicate, control wells were treated with the carrier DMSO. E2, which is estradiol-17β (Steraloids®, Newport, R.I.) and resveratrol (Sigma) were used as controls.” for “nm.”
# [6] = tested on: DU145, PC3, and LNCaP cell lines; experiment: MTS assay, values averaged or stated over the CaP cell lines; type: cell-based; details: apoptotic mechanism
# Description: as §2, §3
# [7] = target: T2, ER-α (Homo sapiens, UniProt P03372); experiment: Estrogen receptor relative binding affinity assay, fluorescence polarization, ER-α
# T2 construct: purchased Pan Vera, Madison, Wis
# T2 sequence (P03372 1-595): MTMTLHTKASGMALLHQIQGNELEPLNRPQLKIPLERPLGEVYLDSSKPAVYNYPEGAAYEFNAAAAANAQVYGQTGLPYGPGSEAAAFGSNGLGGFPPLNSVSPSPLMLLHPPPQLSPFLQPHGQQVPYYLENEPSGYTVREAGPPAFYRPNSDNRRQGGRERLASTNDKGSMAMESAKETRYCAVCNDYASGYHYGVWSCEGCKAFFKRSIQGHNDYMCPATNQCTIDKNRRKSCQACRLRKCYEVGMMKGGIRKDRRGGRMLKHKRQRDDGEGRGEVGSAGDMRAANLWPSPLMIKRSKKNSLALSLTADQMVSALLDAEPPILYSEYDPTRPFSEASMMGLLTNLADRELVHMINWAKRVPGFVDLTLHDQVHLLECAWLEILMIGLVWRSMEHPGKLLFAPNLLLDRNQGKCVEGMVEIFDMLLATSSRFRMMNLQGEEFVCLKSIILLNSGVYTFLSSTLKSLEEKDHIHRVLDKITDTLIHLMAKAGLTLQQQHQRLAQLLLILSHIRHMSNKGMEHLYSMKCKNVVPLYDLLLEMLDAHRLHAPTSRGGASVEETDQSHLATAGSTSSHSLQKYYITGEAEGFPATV
# Description: as §1
# [8] = tested on: DU145 cells; experiment: ER competition study, MTS assay with E2 as the competitor; details: DU145, co- or 1 hour pre-treatment with 1 μM E2
# [9] = tested on: DU-145; experiment: Cytotoxicity testing (Example 7), MTS, DU-145; type: cell-based; details: Table 3; five days, 1 mM of each compound, defined media, MTS
# Description: Cytotoxicity Studies were done in DU-145 and MCF-7 Cells. […] We set out to test the efficacy of these compounds based on known affinities for ER-α previously reported. Cells were treated for five days with 1 mM of each compound in a defined media. Cell number was estimated by the MTS method. Similar studies were carried out in the MCF-7 cell line known to express both ER-α and -β, and display proliferative properties in the presence of classic estrogens.
# [10] = fluorescence polarization, 25° C., 2 hours
# [11] = ratio of EC50 values as compared to E2
# T1 sequence (Q92731 whole entry): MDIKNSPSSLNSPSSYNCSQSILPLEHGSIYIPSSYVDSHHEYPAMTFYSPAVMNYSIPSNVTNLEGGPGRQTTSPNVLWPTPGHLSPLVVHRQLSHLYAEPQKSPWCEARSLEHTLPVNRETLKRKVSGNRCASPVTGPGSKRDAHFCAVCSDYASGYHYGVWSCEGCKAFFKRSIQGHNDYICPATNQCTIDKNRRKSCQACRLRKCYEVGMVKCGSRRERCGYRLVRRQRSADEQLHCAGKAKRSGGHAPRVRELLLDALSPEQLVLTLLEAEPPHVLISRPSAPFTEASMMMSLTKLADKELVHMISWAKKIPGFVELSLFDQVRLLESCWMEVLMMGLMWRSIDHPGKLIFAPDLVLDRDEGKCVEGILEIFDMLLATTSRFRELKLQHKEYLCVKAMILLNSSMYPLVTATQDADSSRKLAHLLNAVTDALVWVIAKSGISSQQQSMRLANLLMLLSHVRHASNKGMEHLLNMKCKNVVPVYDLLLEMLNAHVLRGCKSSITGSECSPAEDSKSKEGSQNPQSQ
compound,measurement,setting,value
"C[C@]12CC[C@@H]3c4ccc(O)cc4CC[C@H]3[C@@H]1CC[C@@]2(O)/C=C\c1ccc(N)cc1 [APVE2, 17α-20Z-21-[(4-amino)phenyl]-19-norpregna-1,3,5(10),20-tetraene-3,17β-diol]","general toxicity (animal weight, gross analysis of organs)",[1],No apparent detrimental effects
same,preference for ER-β over ER-α,[2],7 fold
same,EC50,[2]; [10],250 nM
same,ER-β % RBA,[2]; [11],6.2%
same,ER-α/ER-β,[2]; ratio of RBAs,0.14
same,decrease in cell number,"[3]; DU145, 5 days of treatment at 1 μM",92±0.9%
same,EC50,"[3]; Homo sapiens, DU-145, 120 h, read-out: EC50 (cell death, MTS)",16 nM
same,cell death,[4],did induce cell death
same,proliferation / growth response,[4],no growth response; also recorded: did not cause an increase in proliferation
same,EC50,"[5]; Homo sapiens, PC-3, 120 h, PC3, five day treatment, read-out: EC50 (cell death, MTS)",2.7 nM
same,increase in cell proliferation over non-treated controls,"[5]; PC3, 1 nM",20%
same,decrease in cell number,"[5]; PC3, 5 days of treatment at 1 μM",81±0.8%
same,level of cell death,[6],> 90%
same,EC50,[7]; [10],365 nM
same,ER-α % RBA,[7]; [11],0.87%
same,reversal of cytotoxicity of 16 nM APVE2 by E2,[8],not effected; also recorded: not reversed
same,DU145 % Cell#,[9],10%
